Laboratory results published in patent publication US11214594B2, “Antimicrobial peptide having synergistic antibacterial effect with antibiotics on multidrug resistant bacteria, and use thereof” (priority 2016, dated 2022).
≈ marks a conversion by molar mass, not a printed value. Read-outs that look alike come from different tables or passages of the source. Where a SMILES comes first, the peptide text is derived from it.

How the values were obtained:
MDRAB 12035 [1] = assay: MIC of antimicrobial peptide during combined treatment with antibiotic; type: cell-based, Acinetobacter baumannii
Summary of the method: (§1)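 Antibiotic MIC came from antibiotic dilutions added to bacteria (2×10^6 CFU/ml, MH medium) already combined with peptide serially diluted 2:1 from its own MIC. Swapping the roles of the two agents gave the peptide MIC.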

A. baumannii [2] = assay: as above; type: cell-based, Acinetobacter baumannii
Summary of the method: as §1

MDREC 1229 = type: cell-based, Escherichia coli
Summary of the method: as §1

E. coli = type: cell-based, Escherichia coli; settings: E. coli
Summary of the method: as §1

S. typhimurium = assay: microbe, parasite or virus in culture; type: cell-based, Salmonella typhimurium
Summary of the method: (§2)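 Peptides were serially diluted twofold in Mueller-Hinton medium and combined 1:1 with bacterial suspensions prepared at 2×10^6 CFU. Readout was the minimal inhibitory concentration, i.e. the lowest concentration with no growth.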

MDRST 8009 = type: cell-based, Salmonella typhimurium; settings: agent alone
Summary of the method: as §2

MDRAB 12036 = type: cell-based, Acinetobacter baumannii
Summary of the method: as §2

MDRAB 12035 [3] = assay: microbe, parasite or virus in culture; type: cell-based, Acinetobacter baumannii
Summary of the method: as §2

A. baumannii [4] = assay: microbe, parasite or virus in culture; type: cell-based, Acinetobacter baumannii
Summary of the method: as §2

[5] = erythromycin 4 μg/ml (Conc./MIC 1/8)
[6] = erythromycin 8 μg/ml (Conc./MIC 1/4)
[7] = erythromycin 16 μg/ml (Conc./MIC 1/2)
[8] = erythromycin 32 μg/ml (Conc./MIC 1)
[9] = vancomycin 512 μg/ml (Conc./MIC 1/2)
[10] = vancomycin 1024 μg/ml (Conc./MIC 1)
[11] = with Erythromycin […] (Conc./MIC 1)

For `CC[C@H](C)[C@H](NC(=O)[C@H](CCCCN)NC(=O)[C@H](Cc1c[nH]c2ccccc12)NC(=O)[C@@H](N)CCCNC(=N)N)C(=O)N[C@@H](Cc1ccccc1)C(=O)N[C@@H](CCCCN)C(=O)N[C@@H](CCCCN)C(=O)N[C@H](C(=O)N1CCC[C@H]1C(=O)N[C@@H](CCCCN)C(=O)N[C@@H](CC(C)C)C(=O)N[C@@H](CC(C)C)C(=O)N[C@@H](Cc1c[nH]cn1)C(=O)N[C@@H](CO)C(=O)N[C@@H](CC(C)C)C(=O)N[C@@H](CCCCN)C(=O)N[C@@H](CCCCN)C(=O)N[C@@H](Cc1c[nH]c2ccccc12)C(N)=O)[C@@H](C)CC` [PapMA-10, RWK IFK KIP KLL HSL KKW-NH2] (H-RWKIFKKIPKLLHSLKKW-NH2; N-terminus assumed), the “Peptide MIC during treatment with erythromycin” value (MDRAB 12035 [1]; [5]) was 16 µg/mL, the “Peptide MIC during treatment with erythromycin” value (MDRAB 12035 [1]; [6]) was 8 µg/mL and the “Peptide MIC during treatment with erythromycin” value (MDRAB 12035 [1]; [7]) was 4 µg/mL. The “Peptide MIC during treatment with erythromycin” value (MDRAB 12035 [1]; [8]) was 0 µg/mL, the “Peptide MIC during treatment with linezolid” value (MDRAB 12035 [1]; linezolid 64 μg/ml (Conc./MIC 1/8)) was 4 µg/mL and the “Peptide MIC during treatment with linezolid” value (MDRAB 12035 [1]; linezolid 512 μg/ml (Conc./MIC 1)) was 0 µg/mL. For the same compound, the “Peptide MIC during treatment with linezolid” value (MDRAB 12035 [1]; linezolid […] (Conc./MIC 1/2)) was 2 µg/mL, the “Peptide MIC during treatment with linezolid” value (MDRAB 12035 [1]; linezolid […] (Conc./MIC 1/4)) was 2 µg/mL and the “Peptide MIC during treatment with vancomycin” value (MDRAB 12035 [1]; [9]) was 2 µg/mL. The “Peptide MIC during treatment with vancomycin” value (MDRAB 12035 [1]; [10]) was 1 µg/mL, the “Peptide MIC during treatment with vancomycin” value (MDRAB 12035 [1]; vancomycin […] (Conc./MIC 1/4)) was 4 µg/mL and the “Peptide MIC during treatment with vancomycin” value (MDRAB 12035 [1]; vancomycin […] (Conc./MIC 1/8)) was 4 µg/mL. The “Peptide MIC during treatment with antibiotic” value (A. baumannii [2]; [5]) was 8 µg/mL, the “Peptide MIC during treatment with antibiotic” value (A. baumannii [2]; [6]) was 4 µg/mL and the “Peptide MIC during treatment with antibiotic” value (A. baumannii [2]; [7]) was 2 µg/mL. The “Peptide MIC during treatment with antibiotic” value (A. baumannii [2]; [8]) was 0 µg/mL, the “Peptide MIC during treatment with antibiotic” value (A. baumannii [2]; linezolid 32 μg/ml (Conc./MIC 1/8)) was 8 µg/mL and the “Peptide MIC during treatment with antibiotic” value (A. baumannii [2]; linezolid 64 μg/ml (Conc./MIC 1/4)) was 4 µg/mL. For the same compound, the “Peptide MIC during treatment with antibiotic” value (A. baumannii [2]; linezolid […] (Conc./MIC 1)) was 0 µg/mL, the “Peptide MIC during treatment with antibiotic” value (A. baumannii [2]; linezolid […] (Conc./MIC 1/2)) was 4 µg/mL and the “Peptide MIC during treatment with antibiotic” value (A. baumannii [2]; [9]) was 1 µg/mL. For the same compound, the “Peptide MIC during treatment with antibiotic” value (A. baumannii [2]; [10]) was 0 µg/mL, the “Peptide MIC during treatment with antibiotic” value (A. baumannii [2]; vancomycin […] (Conc./MIC 1/4)) was 1 µg/mL and the “Peptide MIC during treatment with antibiotic” value (A. baumannii [2]; vancomycin […] (Conc./MIC 1/8)) was 4 µg/mL. For the same compound, the “Peptide MIC” value (MDREC 1229; [11]) was 0 µg/mL, the “Peptide MIC” value (MDREC 1229; with Linezolid 512 μg/ml (Conc./MIC 1)) was 0 µg/mL and the “Peptide MIC” value (E. coli; [11]) was 0 µg/mL. For the same compound, the “Peptide MIC” value (E. coli; with Linezolid […] (Conc./MIC 1)) was 0 µg/mL, the “Peptide MIC” value (E. coli; with Vancomycin 1024 μg/ml (Conc./MIC 1)) was 0 µg/mL and the “Minimal inhibitory concentration MIC” value (S. typhimurium) was 16 µg/mL (≈ 6.81 µM). For the same compound, the “Minimal inhibitory concentration MIC” value (MDRST 8009) was 32 µg/mL (≈ 13.6 µM), the “Minimal inhibitory concentration MIC” value (MDRAB 12036) was 32 µg/mL (≈ 13.6 µM) and the “Minimal inhibitory concentration MIC” value (MDRAB 12035 [3]) was 32 µg/mL (≈ 13.6 µM). The “Peptide MIC, peptide alone” value (MDRAB 12035 [3]) was 32 µg/mL, the “Minimal inhibitory concentration MIC” value (A. baumannii [4]) was 16 µg/mL (≈ 6.81 µM) and the “Peptide MIC, peptide alone” value (A. baumannii [4]) was 16 µg/mL.
